Assay [1] has as its system RGCs (retinal ganglion cells). Put plainly: Retinal Ganglion Cell Survival Assay (serum deprivation). Type of assay: cell-based, Neonatal, Sprague-Dawley rats. To be noted: cultured without serum; Propentofylline 100 μM; 3 days after serum removal; survival with serum = 100%; mean and SEM (n = 6). The source says: Retinal Ganglion Cell Survival Assay:
Techniques for the isolation and culture of RGCs were adapted from those reported by Takahashi N. et al., Rat retinal ganglion cells in culture. Exp. Eye Res. volume 53, pages 565-572 (1991). […] Two to 4 days later, retina cells were dissociated. Cultured RGCs were identified by sufficient Di-I fluorescence to be observed visually using a fluorescent microscope.
Neonatal, Sprague-Dawley rats, 2-5 days old, were anesthetized by hypothermia, after which, a 2 mm midline opening was made in the scalp just caudal to the traverse sinus. The tip of the injection needle (30 gauge) was inserted 6 mm below the top of the skull, and a 5 μl Di-I solution, containing 3 mg/ml Di-I (1,1′-dioctadecyl-3,3,3′,3′-tetramethylindo-carbocyanine perchlorate (Molecular Probes, Eugene, Oreg.) in 90% ethanol and 10% dimethylsulfoxide, was injected. The wound was then covered with a drop of Flexible Collodion (Amend Drug & Chemical Co., Irvington, N.J.). Rats were returned to their mother after warming and recovery from anesthesia.
Two to 4 days after Di-I injection, rats were anesthetized by hypothermia and sacrificed by decapitation. Their eyes were enucleated and placed in Dulbecco's modified Eagle's medium: Nutrient mixture F12 (1:1; DMEM/F12, Gibco Co., Grand Island, N.Y.). The retina from each eye was detached and isolated. […]

In another assay the test system is axotomized RGCs. To be noted: single intravitreal injection of 5 μg on Day 0; one week after; untreated retinas lost nearly half of the axotomized RGCs; cited from earlier work.

For `CCCn1cnc2c1c(=O)n(CCCCC(C)=O)c(=O)n2C` [Propentofylline, propentofylline], in assay [1], the “RGC Survival (%)” value is 96.9 ± 4.8 %.

B1: brain-derived neurotrophic factor (protein, UniProt P23560 19-247, looked up)
Neurotrophic factor BDNF …: APMKEANIRGQGGLAYPGVRTHGTLESVNGPKAGSRGLTSLADTFEHVIEELLDEDQKVRPNEENNKDADLYTSRVMLSSQVPLEPPLLFLLEEYKNYLDAANMSMRVRRHSDPARRGELSVCDSISEWVTAADKKTAVDMSGGTVTVLEKVPVSKGQLKQYFYETKCNPMGYTKEGCRGIDKRHWNSQCRTTQSYVRALTMDSKKRIGWRFIRIDTSCVCTLTIKRGR
Take B1: in the assay with axotomized RGCs, the “survival of axotomized RGCs” value is “virtually all RGCs were present”.

The values are drawn from patent US6906077B1, “Use of neurotrophic factor stimulators for the treatment of ophthalmic neurodegenerative diseases” (Alcon Manufacturing, Ltd., priority 1998, dated 2005).
